Data: US9295730B2, “Conjugated molecules comprising a peptide derived from the CD4 receptor coupled to a polyanion for the treatment of AIDS” (Institut Pasteur, priority 2008, dated 2016)
Ends that are not written are not given here.

Legend:
Type in all cases: cell-based
[1] = system: X4-tropic HIV-1-LAI; experiment: Antiviral assay, PHA-P-activated PBMC infected with HIV-1-LAI, RT activity in supernatants; settings: Table 7, VIH-1-LAI; for EC50: read-out: ED50 (the source's name)
[2] = system: uninfected PHA-P-activated PBMC; experiment: Cytotoxicity, MTT assay on day 7
Experimental: (§1) In parallel, cytotoxicity of the samples was evaluated in uninfected PHA-P-activated PBMC by a methyltetrazolium salt (MTT) assay on day 7. Experiments were performed in triplicate and 50, 70 and 90% effective doses and cytotoxic doses were calculated using SoftMaxPro software.

[3] = Cytotoxicity, MTT assay on day 7; settings: human, uninfected PHA-P-activated PBMC
Experimental: as §1

[4] = system: R5-tropic HIV-1/Ba-L; experiment: Antiviral assay, PHA-P-activated PBMC infected with HIV-1/Ba-L, RT activity in supernatants; settings: Table 7, VIH-1/Ba-L

5-aminopentyl[(3-O-benzyl-4-O-(4-methoxybenzyl)-2-O-sulfonato-α-L-idopyranosyluronate)-(1→4)-O-(3-O-benzyl-2-deoxy-2-sulfoamino-6-O-sulfonato-α-D-glucopyranoside)-(1→4)-O-(3-O-benzyl-2-O-sulfonato-α-L-idopyranosyluronate)]-(1→4)-O-3-O-benzyl-2-deoxy-2-sulfoamino-6-O-sulfonato-α-D-glucopyranoside heptasodium salt [HS4Bz]
ED70 [1]: >1000 nM
ED90 [1]: >1000 nM
EC50 [1]: > 1000 nM
Cytotoxicity CT50 [2]: >1000 nM
Cytotoxicity CT70 [2]: >1000 nM
Cytotoxicity CT90 [2]: >1000 nM

MEDLEETLFEEFENYSYDLDYYSLESC [GPR1]
ED70 [1]: >1000 nM
ED90 [1]: >1000 nM
EC50 [1]: > 1000 nM
Cytotoxicity CT70 [2]: >1000 nM
Cytotoxicity CT90 [2]: >1000 nM
CC50 at 168 h [3]: > 1000 nM
ED70 [4]: >1000 nM
ED90 [4]: >1000 nM
EC50 ([4]; read-out: ED50 (the source's name)): > 1000 nM
